In patent publication US12497666B2, “Nucleic acid biomarker and use thereof” (Daiichi Sankyo Co., Ltd., priority 2013, dated 2025):

Key:
NC-H1975 = test: Xenograft tumor growth inhibition by U3-1287, NC-H1975; assay type: in vivo; settings: NC-H1975 xenograft in mice, NSCLC; tumor volumes vs control mice
Procedure: (§1) The HRG biomarker was identified by analysing the anti-tumor activity of the anti-HER3 antibody U3-1287 on various human cancer xenografts in vivo and analysis of the expression of HRG of these cell lines in vitro. Human tumor cell lines of various indications were grown as xenografts in mice and treated with the […] antibody U3-1287 for several weeks. Inhibition of tumor growth was analysed by comparing the tumor volumes of control mice and mice treated with U3-1287. Human tumor cell lines were grown in vitro and analysed for HRG RNA expression by PCR.

A549 [1] = test: Reduction of phospho-HER3 and phospho-AKT levels by Western blotting, A549; assay type: cell-based, human; settings: A549, endogenously express heregulin
Procedure: (§2) FIG. 14 depicts efficacy determined in vitro by measuring reduction of phospho-HER3 and phospho-AKT levels by Western blotting.
(§3) U3-1287 efficacy was determined in vitro by measuring reduction of phospho-HER3 and phospho-AKT levels.

Sum225 = test: Xenograft tumor growth inhibition by U3-1287, Sum225; assay type: in vivo; settings: Sum225 xenograft in mice, BC FISH + ve; tumor volumes vs control mice
Procedure: as §1

NCI-H441 = test: Xenograft tumor growth inhibition by U3-1287, NCI-H441; assay type: in vivo; settings: NCI-H441 xenograft in mice, NSCLC; tumor volumes vs control mice
Procedure: as §1

ZR75-1 = test: Xenograft tumor growth inhibition by U3-1287, ZR75-1; assay type: in vivo; settings: ZR75-1 xenograft in mice, BC FISH + ve; tumor volumes vs control mice
Procedure: as §1

MKN-45 = test: Xenograft tumor growth inhibition by U3-1287, MKN-45; assay type: in vivo; settings: MKN-45 xenograft in mice, Gastric; tumor volumes vs control mice
Procedure: as §1

BxPC3 = test: Xenograft tumor growth inhibition by U3-1287, BxPC3; assay type: in vivo; settings: BxPC3 xenograft in mice, Pancreas; tumor volumes vs control mice
Procedure: as §1

A375 = test: Xenograft tumor growth inhibition by U3-1287, A375; assay type: in vivo; settings: A375 xenograft in mice, Melanoma; tumor volumes vs control mice
Procedure: as §1

CaOV3 = test: Reduction of phospho-HER3 and phospho-AKT levels by Western blotting, CaOV3; assay type: cell-based, human; settings: CaOV3, no basal HER3 activation, stimulated with exogenous heregulin
Procedure: as §2, §3

HCC 1569 = test: Xenograft tumor growth inhibition by U3-1287, HCC 1569; assay type: in vivo; settings: HCC 1569 xenograft in mice, BC FISH + ve; tumor volumes vs control mice
Procedure: as §1

FaDu = test: Xenograft tumor growth inhibition by U3-1287, FaDu; assay type: in vivo; settings: FaDu xenograft in mice, Head&Neck; tumor volumes vs control mice
Procedure: as §1

MDA-MB453 = test: Xenograft tumor growth inhibition by U3-1287, MDA-MB453; assay type: in vivo; settings: MDA-MB453 xenograft in mice, BC FISH + ve; tumor volumes vs control mice
Procedure: as §1

MCF-7 = test: Xenograft tumor growth inhibition by U3-1287, MCF-7; assay type: in vivo; settings: MCF-7 xenograft in mice, BC FISH + ve; tumor volumes vs control mice
Procedure: as §1

[2] = Phase 1 monotherapy study of patritumab
Procedure: A higher maintenance dose level of 18 mg/kg was also included to accommodate the possible effect of reduced tumor tissue penetration in the clinical setting relative to animal models.

HT-144 = test: Xenograft tumor growth inhibition by U3-1287, HT-144; assay type: in vivo; settings: HT-144 xenograft in mice, Melanoma; tumor volumes vs control mice
Procedure: as §1

A549 [3] = test: Xenograft tumor growth inhibition by U3-1287, A549; assay type: in vivo; settings: A549 xenograft in mice, NSCLC; tumor volumes vs control mice
Procedure: as §1

HT-29 = test: Xenograft tumor growth inhibition by U3-1287, HT-29; assay type: in vivo; settings: HT-29 xenograft in mice, Colon; tumor volumes vs control mice
Procedure: as §1

BT474 [4] = test: HER3 phosphorylation by Western blot, BT474; assay type: cell-based, human
Excerpt: FIG. 15 depicts Western blots showing that U3-1287 can block […] basal HER3 phosphorylation.

Calu-3 = test: Xenograft tumor growth inhibition by U3-1287, Calu-3; assay type: in vivo; settings: Calu-3 xenograft in mice, NSCLC; tumor volumes vs control mice
Procedure: as §1

BT474 [5] = test: Xenograft tumor growth inhibition by U3-1287, BT474; assay type: in vivo; settings: BT474 xenograft in mice, BC FISH + ve; tumor volumes vs control mice
Procedure: as §1

## patritumab: anti-HER3 antibody; U3-1287 corresponds to patritumab
NC-H1975
  In vivo efficacy (SA): Yes
A549 [1]
  Basal HER3 phosphorylation (phospho-HER3 and phospho-AKT levels): Basal HER3 phosphorylation could be blocked
Sum225
  In vivo efficacy (SA): No
NCI-H441
  In vivo efficacy (SA): No
ZR75-1
  In vivo efficacy (SA): No
MKN-45
  In vivo efficacy (SA): Yes
BxPC3
  In vivo efficacy (SA): Yes
A375
  In vivo efficacy (SA): No
CaOV3
  HER3 phosphorylation (phospho-HER3 and phospho-AKT levels): could be blocked
HCC 1569
  In vivo efficacy (SA): No
FaDu
  In vivo efficacy (SA): Yes
MDA-MB453
  In vivo efficacy (SA): No
MCF-7
  In vivo efficacy (SA): No
[2]; Phase 1 study
  maximum tolerated dose: not reached
[2]; monotherapy Phase 1 study
  dose limiting toxicity: lack of dose limiting toxicity
HT-144
  In vivo efficacy (SA): No
A549 [3]
  In vivo efficacy (SA): Yes
HT-29
  In vivo efficacy (SA): Yes
BT474 [4]; BT474 HRG: exogenously added heregulin
  efficacy on HER3 phosphorylation: this could be overcome by exogenously added heregulin
BT474 [4]; BT474 basal: basal HER3 phosphorylation, no heregulin expression
  efficacy on HER3 phosphorylation: no efficacy
Calu-3
  In vivo efficacy (SA): Yes
BT474 [5]
  In vivo efficacy (SA): No
